# In patent publication US11072592B2, “Small molecules that enable cartilage rejuvenation” (The Regents of the University of California, priority 2015, dated 2021):
# “Also recorded” adds a separate entry of the source.
# Experiments:
# p-STAT3/c-MYC = assay: Secondary screening for effects on p-STAT3/c-MYC protein levels; format: cell-based; details: secondary screening of 75 compounds
# Procedure: In a clinical setting, treatment with exogenous growth factors would present a difficult and expensive strategy. To address this, our group designed a high throughput screen to identify small molecule modulators of chondrogenic differentiation based on the prevention of the hypertrophy-associated marker collagen X (COLX). […] Importantly, the stimulatory effect of CRMs on p-STAT3 and c-MYC was reversible; protein levels of both p-STAT-3 and c-MYC decreased 48 hours after CRM-398 or -423 withdrawal (data not shown). Identification of such compounds can not only allow us to control differentiation of chondrocytes, but also manipulate the expression of STAT3 and c-MYC to achieve rejuvenation of adult chondrocytes. CRM-398 and -423 can be tested in parallel with LIF and their effects on adult articular chondrocyte activation can be assessed as described herein.
# A strategy for screening for molecules with anti-differentiation effects includes observation of primary limb mesenchyme from mCherry-COL10A1 mice. The screening strategy identifies molecules with STAT3 and c-Myc modulatory activity. FIG. 14 depicts exemplary results for a screening conducted on 170,000 compounds, resulting in 469 hits. FIG. 15 depicts percentage positive z-scores for the 469 compounds identified. FIG. 16 depicts a further screening analysis of the previously identified 469 hit compounds, resulting in 75 refined hits. […]
# [1] = test system: adult human articular chondrocytes; assay: Survival / apoptosis (Annexin V) of adult articular chondrocytes; format: cell-based; details: for chondrocytes survival in adult explants: LIF 50 ng/mL, CRM-423 10 uM
# Procedure: FIGS. 28A-28I. Small molecule-mediated activation of a fetal-like molecular and functional phenotype in adult articular cartilage. (FIG. 28A) Adult human articular chondrocytes were incubated with or without RCGD 423 and levels of MYC and pSTAT3 were quantified relative to histone H3. (FIG. 28B) Levels of MYC and pSTAT3 protein were measured in pig adult articular chondrocytes to determine the effects of RCGD 423 in a dose- and time-dependent manner; histone H3 was used as a loading control. (FIG. 28C) Migration of adult human articular chondrocytes in a Transwell® assay was assessed in the presence and absence of RCGD 423. (FIG. 28D) Adult human articular chondrocytes were incubated with or without RCGD 423 in hydrogel for 24 hours and then apoptotic cells were quantitated via flow cytometry for Annexin V. (FIG. 28E) Single human adult articular chondrocytes were cultured for 5 weeks with or without stimulation with RCGD 423. (FIG. 28F) Proliferation in explants of adult pig articular cartilage in the absence or presence of RCGD 423 as shown by EdU incorporation. Explants of adult pig articular cartilage were incubated with EdU in the presence or absence of LIF to detect proliferating cells. Scale bars represent 25 μm. (FIG. 28G) Metabolic activity of human adult articular chondrocytes (ECAR and OCR) was assessed in the presence or absence of RCGD 423; the response in these parameters to stimulation with LIF is shown for comparison. […]
# Only early passages of chondrocytes (passage 0-2) were used for experimentation to avoid de-differentiation and loss of cartilage phenotype (Wu et al., 2014). Cartilage explants were made using 1, 2 or 8 mm biopsy punch and wet weight of each explant determined prior to experimentation. […]
# TdT-mediated dUTP nick-end labeling (TUNEL) or EdU assays were performed by using in situ cell death detection kit (TUNEL, Roche Diagnostics GmbH, Germany) or Click-iT® Assay Kit obtained from Invitrogen (Carlsbad, Calif.), respectively, as described in the manufacturer's protocol. […] After staining sections were analyzed using fluorescent microscopy. […]
Molecule,effects on p-STAT3/c-MYC protein levels (p-STAT3/c-MYC),chondrocytes survival in adult explants [1],"apoptosis (Annexin V) ([1]; adult human articular chondrocytes in hydrogel, 24 hours)"
"Brc1ccc(Nc2nc(-c3ccccc3)cs2)cc1 [RCGD 423, N-(4-Bromophenyl)-4-phenyl-1,3-thiazol-2-amine]",most prominent effects,increase,decreased
LIF: interleukin 6 (IL-6)-class cytokine,,increase; also recorded: promoted survival,
